{"source": "patent US6369114B1", "about": "“Administration of an α2-adrenergic receptor agonist to enhance cardiopulmonary resuscitation” (Institute of Critical Care Medicine, priority 1999, dated 2002)", "key": {"[1]": {"settings": "immediately following administration, under spontaneous circulation and during CPR; cited from earlier work"}, "[2]": {"system": "post-resuscitation myocardial dysfunction, ventricular arrhythmias and survival", "test": "Ventricular fibrillation cardiac arrest with precordial compression and defibrillation in rats (Example 1)", "type": "in vivo, Sprague-Dawley rats", "settings": "for duration of post-resuscitation survival: VF untreated 8 min, drug after 2 min precordial compression, α-methylnorepinephrine 100 μg/kg, epinephrine 30 μg/kg, FIG. 4; for resuscitation outcome: defibrillation attempted 4 min after drug", "experimental": "Sprague-Dawley rats (450-570 g) were fasted overnight except for free access to water. The animals were anesthetized by intraperitoneal injection of 45 mg/kg pentobarbital sodium supplemented with additional doses of 10 mg/kg at hourly intervals, except that no pentobarbital was administered for 30 minutes before induction of cardiac arrest. The trachea was orally intubated with a 14-gauge cannula (Quick-Cath, Vicra division, Travenol Laboratory) mounted on a blunt needle with a 145° angled tip. For measurement of the partial pressure of carbon dioxide in the endotracheum (PETCO2), the respiratory gas was sampled through a side manifold interposed between the tracheal cannula and the respirator. The PCO2 was measured with a side-stream infrared CO2 analyzer (model 200, Instrumentation Laboratories). For measurement of left ventricular pressure, and both dP/dt40 (the rate of left ventricular pressure increase measured at a left ventricular pressure of 40 mm Hg, an indicator of isovolemic contractility) and negative dP/dt (the rate of left ventricular pressure decline, a measure of myocardial relaxation), a Teflon catheter (UTX 022; internal diameter, 0.6 mm; outer diameter, 0.97 mm; length 8 cm; Becton Dickinson) was advanced into the left ventricle from the right carotid artery. […] Guided by pressure monitoring, the catheter was slowly withdrawn into the right atrium. Right atrial pressure was measured with reference to the midchest with a high-sensitivity transducer (P-23-9b, Spectramed). This catheter was also used to sample blood from the right atrium. Through the right external jugular vein, a 3F pediatric radial artery catheter (model C-PUM-301J, Cook) was advanced into the right atrium. A precurved guide wire supplied with the catheter was then advanced through the catheter into the right ventricle until an endocardial ECG was observed. Through the right femoral artery, a Teflon catheter (UTX 022, Becton Dickinson) was advanced into the thoracic aorta for measurement of aortic pressure with a model TNF-R transducer (Abbott Critical Care). […] Rectal temperature was measured continuously with a rectal thermistor. Conventional lead II ECGs were recorded with skin electrodes (model E220, In-vivo Metric).\nVentricular fibrillation (VF) was induced and untreated for 8 minutes. Precordial compression (PC) was then initiated. After 2 minutes of precordial compression, animals were randomized to receive either the selective α2-adrenergic agent, α-methylnorepinephrine (100 μg/kg; catalog number M133, Research Biochemicals International; abbreviated “α-methylnorepi.”), epinephrine (30 μg/kg; abbreviated “epi.”) or saline placebo. Defibrillation (DF) was attempted 4 min. later. […] Baseline (BL) or control values are shown at the left of the figures."}, "[3]": {"system": "post-resuscitation left ventricular function and ventricular arrhythmias", "test": "Ventricular fibrillation cardiac arrest with precordial compression and defibrillation in pigs (Example 2)", "type": "in vivo, Male domestic pigs", "settings": "for resuscitation outcome: defibrillation attempted 4 min after drug", "experimental": "Male domestic pigs weighing between 40 and 45 kg were fasted overnight except for free access to water. Anesthesia was initiated by intramuscular injection of ketamine (20 mg/kg) and completed by ear vein injection of sodium pentobarbital (30 mg/kg). Additional doses of sodium pentobarbital (8 mg/kg) were injected at intervals of 1 h to maintain anesthesia. A cuffed endotracheal tube was advanced into the trachea. Animals were mechanically ventilated with a volume-controlled ventilator (Model MA-1; Puritan-Bennett, Carlsbad, Calif.). End tidal PCO2 (PETCO2) was monitored with an infrared analyzer (Model 01R-7101A; Nihon Kohden Corp., Tokyo, Japan). Respiratory frequency was adjusted to maintain PETCO2 between 35 and 40 mm Hg.\nFor the measurement of left ventricular function, a 5-MHZ single plane with 5 MHZ continuous-wave Doppler transesophageal echocardiographic transducer with four-way flexure (Model 21363A; Hewlett-Packard Co., Medical Products Group, Andover Mass.) was advanced from the incisor teeth into the esophagus for a distance of approximately 35 cm. For the measurement of aortic pressure, a fluid-filled catheter was advanced from the left femoral artery into the thoracic aorta. For the measurement of right atrial pressure, pulmonary arterial pressures and blood temperature, a 7-F, pentalumen, thermodilation-tip catheter was advanced from the left femoral vein and flow directed into the pulmonary artery. For inducing ventricular fibrillation (VF), a 5-F pacing catheter (EP Technologies, Inc., Mountain View, Calif.) was advanced from the right cephalic vein into the right ventricle until an electrocardiographic current of injury was recorded.\nVentricular fibrillation (VF) was induced and untreated for 7 minutes. Precordial compression (PC) was then initiated. After 2 minutes of precordial compression, animals were randomized to receive either the selective α2-adrenergic agent, α-methylnorepinephrine (100 μg/kg; catalog number M133, Research Biochemicals International) or epinephrine (30 μg/kg). Defibrillation was attempted 4 min. later. […] A lower incidence of post-resuscitation ventricular arrhythmias was again observed with those animals receiving α-methylnorepinephrine."}, "[4]": {"settings": "compared with epinephrine; cited from earlier work"}}}
{"smiles": "CNC[C@H](O)c1ccc(O)c(O)c1", "note": "[epinephrine]", "values": [{"measurement": "decrease of end tidal CO2 (ETCO2)", "setting": "[1]", "value": 50, "unit": "%"}, {"measurement": "duration of post-resuscitation survival", "setting": "[2]", "value": 19, "unit": "h"}, {"measurement": "resuscitation outcome", "setting": "[2]", "value": "successfully resuscitated"}, {"measurement": "resuscitation outcome", "setting": "[3]", "value": "successfully resuscitated"}]}
{"smiles": "COc1ccc(OC)c(C(O)C(C)N)c1", "note": "(centres unmarked) [methoxamine]", "values": [{"measurement": "effectiveness for restoring spontaneous circulation", "setting": "[4]", "value": "as effective as epinephrine"}]}
{"smiles": "CNC[C@H](O)c1cccc(O)c1", "note": "[phenylephrine]", "values": [{"measurement": "effectiveness for restoring spontaneous circulation", "setting": "[4]", "value": "as effective as epinephrine"}]}
{"smiles": "CC(N)[C@H](O)c1ccc(O)c(O)c1", "note": "(stereo partly drawn) [α-methylnorepinephrine, α-(1-aminoethyl),3,4-dihydroxybenzyl alcohol]", "values": [{"measurement": "post-resuscitation myocardial dysfunction as measured by dp/dt40", "setting": "[2]; 100 μg/kg, vs epinephrine or saline placebo, FIG. 1", "value": "significantly less severe"}, {"measurement": "post-resuscitation myocardial dysfunction as measured by negative dP/dt", "setting": "[2]; 100 μg/kg, vs epinephrine or saline placebo, FIG. 2", "value": "significantly less severe"}, {"measurement": "post-resuscitation myocardial dysfunction as measured by cardiac index (CI)", "setting": "[2]; 100 μg/kg, vs epinephrine or saline placebo, FIG. 3", "value": "significantly less severe"}, {"measurement": "duration of post-resuscitation survival", "setting": "[2]", "value": 72, "unit": "h"}, {"measurement": "resuscitation outcome", "setting": "[2]", "value": "successfully resuscitated"}, {"measurement": "incidence of post-resuscitation ventricular arrhythmias", "setting": "[2]; α-methylnorepinephrine 100 μg/kg vs epinephrine 30 μg/kg or saline placebo", "value": "significantly lower"}, {"measurement": "post-resuscitation left ventricular stroke volume", "setting": "[3]; 100 μg/kg vs epinephrine 30 μg/kg, transesophageal echo-Doppler, FIG. 5", "value": "markedly improved"}, {"measurement": "post-resuscitation ejection fraction", "setting": "[3]; 100 μg/kg vs epinephrine 30 μg/kg, transesophageal echo-Doppler, FIG. 6", "value": "markedly improved"}, {"measurement": "post-resuscitation cardiac output", "setting": "[3]; 100 μg/kg vs epinephrine 30 μg/kg, transesophageal echo-Doppler, FIG. 7", "value": "markedly improved"}, {"measurement": "incidence of post-resuscitation ventricular arrhythmias", "setting": "[3]; VF untreated 7 min, α-methylnorepinephrine 100 μg/kg vs epinephrine 30 μg/kg", "value": "lower"}, {"measurement": "resuscitation outcome", "setting": "[3]", "value": "successfully resuscitated"}]}
